Measurements from patent publication US20220306585A1, “PYRAZOLE DERIVATIVES FOR CONTROLLING ARTHROPODS” (Bayer Animal Health GmbH, priority 2019, published 2022).
In brackets after ≈: the same amount, converted by molar mass.

Experiments:
[1] = Degradation of prodrugs and release of parent drug in rat plasma; type: in vitro ADME; conditions: male, Hannover-Janvier RjHan, rat plasma (Li-heparin), 37° C., percent area of prodrug at t0
In short: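 Prodrug spiked into male Hannover rat Li-heparin plasma at 37 °C. Samples at 0.17–4 h quenched in acetonitrile/citric acid pH 3, then analysed by HPLC, with HPLC-MS at final time point. Prodrug loss and parent drug appearance given as percent area of prodrug at t0.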

[2] = Measurement of solubility in buffer at pH 6.5; type: physicochemical; conditions: aqueous buffer, kinetic from dmso stock; PBS buffer pH 6.5, shaken 24 h at rt, LC-MSMS; read-out: Solubility of example compounds at pH 6.5
In short: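 DMSO stock (50 g/L) diluted into PBS pH 6.5, nominal final […], shaken 24 h at rt. After centrifugation, supernatant concentration quantified by LC-MSMS against a 1.2–600 ng/mL calibration curve.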

[3] = Measurement of stability of prodrugs in buffer at pH 7.4; type: physicochemical; conditions: PBS buffer pH 7.4, 37° C., HPLC peak area, read-out: % Recovery after 24 h (stability at pH 7.4)
In short: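 Test compound (0.15 mg) in DMSO/acetonitrile was mixed with PBS pH 7.4 and held at 37 °C for 24 h. Remaining compound was followed by HPLC as peak area percentage of total area. The final time point was also analysed by HPLC-MS.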

[4] = system: Dermacentor variabilis nymph; assay: Antiparasitic activity after administration to rats: ticks; type: in vivo; conditions: 11.97 mg/kg sc, Dermacentor variabilis nymph
In short: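 Compounds dissolved in glycerol formal, given i.p. or s.c. to rats, 5 per group. Infestation with 30 D. variabilis nymphs (days −2, 7, 14, 21, 28, 35) and 30 adult C. felis (days −1, 8, 15, 22, 29, 36), with counts on days 2, 9, 16, 23, 30, 37. Percent efficacy compares mean live attached ticks or live fleas with a placebo-treated group.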

[5] = Degradation of prodrugs and release of parent drug in dog plasma; type: in vitro ADME; conditions: male, Beagle, dog plasma (EDTA stabilized), 37° C., percent area of prodrug at t0
Procedure: Measurement of Release of Parent Drug in Dog Plasma 1 mg of the test compound was dissolved in 0.5 mL acetonitrile/dimethylsulfoxide 9:1. For complete dissolution the HPLC vial was shaken and treated with ultrasound. 20 μL of this solution were added to 1 mL of dog plasma (Beagle, male; EDTA stabilized) under vortexing at a temperature of 37° C. Aliquots (100 μL each) were taken at 0.17, 0.5, 1, 1.5, 2 and 4 hours. Each aliquot was transferred to a vial containing 300 μL of acetonitrile/citric acid buffer pH 3 80:20. These solutions were centrifuged at 5000 rpm for 10 minutes. The supernatant was analysed by HPLC (Method 8) to determine the amount of the test compound. In addition, the reaction mixture was analysed by method 9 (HPLC-MS) at the final timepoint. Both decrease of the prodrug concentration and increase of parent drug concentration were monitored. All data is given as percent area of the prodrug at t0.

N#CC1(N(COC(=O)/C=C/C(=O)O)C(=O)c2cc(-c3cnn(-c4c(Cl)cc(C(F)(C(F)(F)F)C(F)(F)F)cc4OC(F)(F)F)c3)ccc2Cl)CC1 [Example 13, (2E)-4-{[(2-Chloro-5-{1-[2-chloro-4-(1,1,1,2,3,3,3-heptafluoropropan-2-yl)-6-(trifluoromethoxy)phenyl]-1H-pyrazol-4-yl}benzoyl)(1-cyanocyclopropyl)amino]methoxy}-4-oxobut-2-enoic acid]
recovery at 0.17 h, 39 µg/mL ([1]; 0.17 h): 96%
recovery at 0.5 h, 39 µg/mL ([1]; 0.5 h): 85%
recovery at 1 h, 39 µg/mL ([1]; 1 h): 63%
recovery at 1.5 h, 39 µg/mL ([1]; 1.5 h): 49%
recovery at 2 h, 39 µg/mL ([1]; 2 h): 35%
recovery at 4 h, 39 µg/mL ([1]; 4 h): 14%
solubility at 24 h [2]: 18 µg/mL (≈ 23.2 µM)
recovery at 24 h, 0.1 mg/mL [3]: 97%
In-vivo Efficacy SD2 ([4]; study day 2): 100%
In-vivo Efficacy SD9 ([4]; study day 9): 100%
In-vivo Efficacy SD16 ([4]; study day 16): 99%
In-vivo Efficacy SD23 ([4]; study day 23): 77%
In-vivo Efficacy SD30 ([4]; study day 30): 59%
In-vivo Efficacy SD37 ([4]; study day 37): 49%
recovery at 0.17 h, 39 µg/mL ([5]; 0.17 h): 95%
recovery at 0.5 h, 39 µg/mL ([5]; 0.5 h): 79%
recovery at 1 h, 39 µg/mL ([5]; 1 h): 51%
recovery at 1.5 h, 39 µg/mL ([5]; 1.5 h): 33%
recovery at 2 h, 39 µg/mL ([5]; 2 h): 18%
recovery at 4 h, 39 µg/mL ([5]; 4 h): 0%
